pIC50: −log10 of the molar value. Read-outs that look alike come from different tables or passages of the source.
Columns and labels:
MV4-11 cells [1] = experiment: MTT viability assay; assay type: cell-based; settings: Homo sapiens, read-out: IC50 viability
Procedure: (§1) Drug treatments were carried out for 72 hours. Details are provided in the Supplemental Methods.

[2] = system: Ba/F3 cells expressing FLT3 ITD/D835H; experiment: MTT viability assay; assay type: cell-based; settings: Mus musculus, read-out: IC50 viability
Procedure: as §1

[3] = system: Ba/F3 cells expressing FLT3 D835Y; experiment: MTT viability assay; assay type: cell-based; settings: Mus musculus, read-out: IC50 viability
Procedure: as §1

[4] = system: Ba/F3 cells expressing FLT3 ITD/D835Y; experiment: MTT viability assay; assay type: cell-based; settings: Mus musculus, read-out: IC50 viability
Procedure: as §1

[5] = system: Ba/F3 cells expressing FLT3-ITD/F691L; experiment: MTT viability assay; assay type: cell-based; settings: Mus musculus, BaF3, 72 hours
Procedure: as §1

[6] = system: Ba/F3 cells expressing FLT3 D835H; experiment: MTT viability assay; assay type: cell-based; settings: Mus musculus, read-out: IC50 viability
Procedure: as §1

[7] = system: Ba/F3 cells expressing FLT3-ITD; experiment: MTT viability assay; assay type: cell-based; settings: Mus musculus, read-out: IC50 viability
Procedure: as §1

MOLM13 cells [8] = experiment: MTT viability assay; assay type: cell-based; settings: Homo sapiens, read-out: IC50 viability
Procedure: as §1

MOLM13-RES cells = experiment: MTT viability assay; assay type: cell-based; settings: Homo sapiens, read-out: IC50 viability
Procedure: as §1

Ba/F3 cells GFP+IL3 = experiment: MTT viability assay; assay type: cell-based; settings: Mus musculus, read-out: IC50 viability
Procedure: as §1

MOLM13 cells [9] = experiment: MOLM13 viability ± coculture with HS5-GFP MSCs (MTT); assay type: cell-based; settings: Homo sapiens
Procedure: Drug treatments were carried out for 72 hours. Details are provided in the Supplemental Methods. […]
HS5-GFP human bone marrow stromal cells were plated and cultured for 72 hours to near confluence.
MOLM13 cells were then seeded onto HS5-GFP cells to establish a co-culture. Twenty-four hours later, cells
were treated with increasing concentrations of drug for an additional 72 hours. MOLM13 and HS5-GFP cells
were then separated and MTT assay s were performed for cell viability assessment of each cell population. […]

[10] = system: primary FLT3-ITD/IDH2-R140Q murine leukemia cells; experiment: CellTiterGlo viability assay, ex vivo; assay type: cell-based; settings: Mus musculus, 72 hours
Procedure: as §1
(§2) Cell viability of primary samples […]
(§3) For murine or human primary AML cells, 100,000 cells/well were plated in a 96-well plate and treated with increasing concentrations of drug. Cell viability, via trypan blue, was measured every 24 hours. If the viability fell below 50% or at 72 hours of treatment, whichever came earlier, cell viability of each plate was measured via

[11] = system: human primary AML samples; experiment: CellTiterGlo viability assay, ex vivo; assay type: cell-based
Procedure: as §1, §2
as §3, with “measured via CellTiter-Glo. Primary human AML cells were obtained from the OSUCCC Leukemia Tissue Bank Shared […]” for “measured via”
Primary AML samples were analyzed by targeted gene sequencing of 80 genes, as previously described (1). Samples were pooled and analyzed on a MiSeq system using the Illuminia MiSeq Reagent Kit v3. Ill umina Isis Banded Smith Waterman aligner and hg19 genome were used to align the sequences. Single nucleotide variant (SNV) and indel calling were performed using MuTect and Varscan2. A variant allele fraction (VAF) cut-off of 0.10 was set for reporting mutations. SNV that are reported as pathogenic SNP were considered mutations.
All other SNV needed to be absent from 1000 Genome database, dsSNP137 or dsSNP142. Visual inspection of all variants was carried out using Integrative Genomics Viewer (Broad Institute) . […]

MV4-11 cells [12] = experiment: CFU assay with IL-3, GM-CSF or FGF2; assay type: cell-based, human; settings: 7-day MV4-11 CFU assay
Procedure: For human primary CFU assays, cells were cultured in MethoCult H4035 Optimum without EPO (Stemcell Technologies). For mouse primary CFU assays, cells were directly cultured in MethoCult M3231 (Stemcell Technologies) supplemented with 45 ng/mL of murine IL-6 (mIL-6), mIL-3, and mSCF. Both human and mouse primary cells 10,000 cells were plated in duplicate for each drug concentration. For cell line CFU assays, MV4-11 cells were treated with drugs in the presence of 20 ng/mL IL-3, GM-CSF, or FGF2. Cells were plated in MethoCult H4230 (Stemcell Technologies) in duplicates at 250 cells/plate. Plates were placed in a 37°C incubator for 7 or 14 days for human cell lines and for mouse or human primary cells, respectively. Colonies were identified as clusters containing 40 or more cells. For CFU assays using human primary CD34^+ cells, umbilical cord blood was obtained from the OSU Comprehensive Cancer Center (CCC) Leukemia Tissue Bank Shared Resource, and mononuclear cells were isolated by using density gradient centrifugation. CD34^+ cells were purified using the CD34 UltraPure MicroBead Kit (Miltenyi Biotec) according to the manufacturer’s instructions. CFU assay with CD34^+ cells was performed as described above, and the total number of colonies were counted after 7–10 days.

MOLM13 cells [13] = experiment: MOLM13 viability ± cytokines (MTT); settings: Homo sapiens
Procedure: Drug treatment effects on cell lines were assessed by MTT assay (Roche Diagnostics), as previously described ([21]). […] Drug treatments were carried out for 72 hours.

[14] = MV4-11, FLT3-ITD, MTT, 72 hours
[15] = BaF3, Ba/F3 FLT3 ITD/D835H, MTT, 72 hours
[16] = BaF3, Ba/F3 FLT3 D835Y, MTT, 72 hours
[17] = BaF3, Ba/F3 FLT3 ITD/D835Y, MTT, 72 hours
[18] = BaF3, Ba/F3 FLT3 D835H, MTT, 72 hours
[19] = BaF3, Ba/F3 FLT3 ITD, MTT, 72 hours
[20] = MOLM-13, MOLM13, FLT3-ITD, MTT, 72 hours
[21] = MOLM13-RES, FLT3-ITD/D835Y, MTT, 72 hours
[22] = BaF3, Ba/F3 GFP+IL3, MTT, 72 hours
[23] = MOLM-13, MOLM13 + HS5-GFP co-culture, read-out: IC50 viability
[24] = MOLM-13, MOLM13 alone (co-culture experiment), read-out: IC50 viability
[25] = sample 240: FLT3-ITD, IDH2, NPM1, read-out: IC50 viability
[26] = sample 370: FLT3-ITD, IDH1, NPM1, SMARCA2, read-out: IC50 viability
[27] = sample 0762 (762): FLT3-ITD, NRAS, KRAS, DNMT3A, NPM1, D835E, read-out: IC50 viability
[28] = sample 1069: FLT3-ITD, SRSF2, IDH2, DNMT3A, read-out: IC50 viability
[29] = sample 1355: FLT3-ITD, NPM1, IDH2, read-out: IC50 viability

Row | pIC50 (MV4-11 cells [1]; [14]) | pIC50 [2, 15] | pIC50 [3, 16] | pIC50 [4, 17] | pIC50 [5] | pIC50 [6, 18] | pIC50 [7, 19] | pIC50 (MOLM13 cells [8]; [20]) | pIC50 (MOLM13-RES cells; [21]) | pIC50 (Ba/F3 cells GFP+IL3; [22]) | pIC50 (MOLM13 cells [9]; [23]) | pIC50 (MOLM13 cells [9]; [24]) | pIC50 [10] | Structure (SMILES) | pIC50 [11, 25] | pIC50 [11, 26] | pIC50 [11, 27] | pIC50 [11, 28] | pIC50 [11, 29] | pIC50 (Ba/F3 cells GFP+IL3; BaF3, 72 h) | other results
1 | 8.18 | 7.42 | 10.17 | 7.46 | 7.24 | 9.57 | 8.74 | 8.13 | 7.96 | 6.11 | 7.70 | 8.30 | 5.51 | CC1(COc2ccc3c(c2)ncn3-c2ccc3cccc(N4CCC(N)CC4)c3n2)COC1 [Crenolanib, crenolanib] | 7.05 | 6.72 | 6.26 | 6.31 | 6.52 | – | –
2 | – | 7.55 | – | – | – | – | – | – | – | 6.48 | 7.00 | – | – | CO[C@@H]1[C@H](N(C)C(=O)c2ccccc2)C[C@H]2O[C@]1(C)n1c3ccccc3c3c4c(c5c6ccccc6n2c5c31)C(=O)NC4 [Midostaurin, midostaurin] | – | – | – | – | – | – | Colony formation with IL-3, GM-CSF, or FGF2 (MV4-11 cells [12]): fully or partially rescued; pIC50 (MOLM13 cells [13]; MOLM-13, read-out: IC50 viability, MOLM13 + GM-CSF): 7.32; pIC50 (MOLM13 cells [13]; MOLM-13, read-out: IC50 viability, MOLM13, no cytokine): 7.72; pIC50 ([11]; sample 036: FLT3 wild-type, NRAS, IDH2, NPM1, DNMT3A, read-out: IC50 viability): 6.48
3 | – | – | – | – | – | – | – | – | – | – | – | – | – | CC(C)(C)c1cc(NC(=O)Nc2ccc(-c3cn4c(n3)sc3cc(OCCN5CCOCC5)ccc34)cc2)no1 [Quizartinib, quizartinib] | – | – | – | – | – | < 5.00 | pIC50 (MV4-11 cells [1]; MV4-11, 72 h): 8.77; pIC50 (MOLM13 cells [8]; MOLM-13, 72 h): 8.60; pIC50 (MOLM13-RES cells; 72 h): 6.40; pIC50 (MOLM13 cells [9]; MOLM-13, read-out: IC50 viability, MOLM13 + HS5-GFP co-culture): 8.33; pIC50 ([11]; read-out: IC50 viability, sample 240: FLT3-ITD, IDH2, NPM1): 6.62; pIC50 ([11]; read-out: IC50 viability, sample 370: FLT3-ITD, IDH1, NPM1, SMARCA2): 6.43; pIC50 ([11]; read-out: IC50 viability, sample 0762 (762): FLT3-ITD, NRAS, KRAS, DNMT3A, NPM1, D835E): 6.45; pIC50 ([11]; read-out: IC50 viability, sample 1069: FLT3-ITD, SRSF2, IDH2, DNMT3A): 6.71; pIC50 ([11]; read-out: IC50 viability, sample 1355: FLT3-ITD, NPM1, IDH2): 6.40
4 | 8.10 | 6.33 | 6.63 | 5.48 | 5.87 | 7.12 | 8.85 | 7.59 | 5.75 | 5.41 | 7.15 | 7.85 | < 5.00 | CNC(=O)c1cc(Oc2ccc(NC(=O)Nc3ccc(Cl)c(C(F)(F)F)c3)cc2)ccn1 [Sorafenib, sorafenib] | 5.83 | 5.99 | 6.71 | 6.45 | 5.45 | – | pIC50 ([11]; sample 774: FLT3-ITD, CBL, IDH1, NPM1, read-out: IC50 viability): 6.18

Row | Structure (SMILES) | pIC50 (MV4-11 cells [1]; [14]) | pIC50 [2, 15] | pIC50 [3, 16] | pIC50 [4, 17] | pIC50 [5] | pIC50 [6, 18] | pIC50 [7, 19] | pIC50 (MOLM13 cells [8]; [20]) | pIC50 (MOLM13-RES cells; [21]) | pIC50 (Ba/F3 cells GFP+IL3; [22]) | pIC50 (MOLM13 cells [9]; [23]) | pIC50 (MOLM13 cells [9]; [24]) | pIC50 [10] | pIC50 [11, 25] | pIC50 [11, 26] | pIC50 [11, 27] | pIC50 [11, 28] | pIC50 [11, 29] | pIC50 (Ba/F3 cells GFP+IL3; BaF3, 72 h) | other results
5 | Cc1ccc(C(=O)Nc2ccc(CN3CCN(C)CC3)c(C(F)(F)F)c2)cc1C#Cc1cnc2cccnn12 [Ponatinib, ponatinib] | – | – | – | – | 7.38 | – | – | – | – | – | – | – | – | – | – | – | – | – | 6.04 | pIC50 ([2]; BaF3, 72 h): 6.90; pIC50 ([3]; BaF3, 72 h): 6.80; pIC50 ([4]; BaF3, 72 h): 6.97; pIC50 ([6]; BaF3, 72 h): 7.05; pIC50 ([7]; BaF3, 72 h): 8.55

Reference: publication PMC7714403 (JCI Insight, 2020)
